Test results published in US9359298B2, “Cajanine structure analogous compound, preparation method and use” (INSTITUTE OF MEDICINAL BIOTECHNOLOGY, CHINESE ACADEMY OF …, priority 2011, dated 2016).
Converted amounts (≈) assume the structure as drawn. Like-named read-outs stand apart in the source and are kept apart here.

Columns and labels:
Type in all cases: cell-based
[1] = test system: Influenza A virus (hanfang359/95); test: Determination of anti-influenza virus activity (CPE in MDCK cells); settings: for IC50: Influenza A virus, MDCK, 36 h; for anti-influenza virus activities compared with the lead compound cajanine: statement in words
Coxsackie virus B6 = test: Coxsackie virus activity assay (CPE in Vero cells); settings: for IC50: Vero
HCV = test: Anti-hepatitis C virus (HCV) activity assay (HCV RNA in Huh7.5 cells); settings: for EC50: Hepatitis C virus, Huh7.5, 72 h, read-out: HCV EC50; for anti-HCV viral activity: statement in words
Procedure: Inoculate Huh7.5 cells into 96-well plates to a density of 3×10^4 cells/cm^2, culture for 24h, infect the cells with 45 IU/cell HCV supernatant, meanwhile, add drug solutions or solvent control for treatment.

HIV-1 III B virus = test: Anti-HIV activity assay (P24 antigen in MT-4 cells); settings: for IC50: Human immunodeficiency virus 1, MT4, 96 h, read-out: HIV IC50; for anti-HIV viral activity: statement in words
PC12 cells [2] = test: Neuroprotective activity assay, serum-deprived injury to PC12 cells (MTT); settings: for viability at 10 µM: Rattus norvegicus, PC-12, 48 h, read-out: serum-deprived (surviving PC12 cells, MTT 570 nm); for protective effect on serum-deprived injury to PC12 cells: statement in words
Procedure: (§1) Discard the original culture media from confluent monolayers of PC12 cells (simulated neuronal cells), add DMEM complete medium with 5% FBS, 5% horse serum gently beat upon the cells with a pipette to completely disperse them, inoculate 100 μl cell suspension at a density of […] per well to 96 hole plates treated with poly-lysine (0.1 mg/ml) in advance, culture for 24h. Divide the experimenting cells into control group, model group and dosing groups. Add complete medium to the control group. Model groups includes rotenone group and serum-deprived group, add rotenone to the corresponding modules with a final concentration of 4 μM rotenone to take effect on the cells for 48 h, add serum-deprived groups with serum-free DMEM medium to take effect on the cells for 48 h. Dosing groups also includes two groups, one using rotenone module as model, another using serum-deprived module as model, and both add in 10 μM test compounds during modeling. 48h later, add 10 μl 5 mg/ml MTT, subsequently discard the supernatant 4h later and add in 150 μl DMSO, measure 570 nm absorbance to represent the numbers of surviving cells.

PC12 cells [3] = test: Neuroprotective activity assay, rotenone injury to PC12 cells (MTT); settings: for viability at 10 µM: Rattus norvegicus, PC-12, 48 h, read-out: rotenone (surviving PC12 cells, MTT 570 nm); for protective effect on rotenone injury to PC12 cells: statement in words
Procedure: as §1

[4] = read-out: COX-B6 IC50, Vero cells, about 100TCID50, CPE, Reed-Muench
[5] = Huh7.5 cells, 72 h, HCV RNA by RT-PCR, Reed-Muench
[6] = MT-4 cells, HIV-1 III B 100TCID50, 96 h, P24 antigen
[7] = 10 μM test compound, 48 h, Control 100.0 ± 9.2, Model 69.3 ± 4.1
[8] = 10 μM test compound, 4 μM rotenone, 48 h, Control 100.0 ± 8.9, Model 73.2 ± 7.8

| Compound | IC50 [1] [µg/mL] | IC50 (Coxsackie virus B6; [4]) [µg/mL] | EC50 (HCV; [5]) [µg/mL] | IC50 (HIV-1 III B virus; [6]) [µg/mL] | viability at 10 µM (PC12 cells [2]; [7]) [%] | viability at 10 µM (PC12 cells [3]; [8]) [%] | also measured |
| --- | --- | --- | --- | --- | --- | --- | --- |
| COc1cc(/C=C/c2ccccc2)c(C(N)=O)c(O)c1CC=C(C)C [Compound 32, 2-hydroxy-3-isopentenyl-4-methoxy-6-[(E)-styryl]benzamide] | 0.21 (≈ 0.622 µM) | 0.54 (≈ 1.6 µM) | 1.37 (≈ 4.06 µM) | 0.16 (≈ 0.474 µM) | 94.5 ± 2.3 | 92.3 ± 1.2 | anti-influenza virus activities compared with the lead compound cajanine [1]: significantly stronger than the lead compound cajanine; protective effect on serum-deprived injury to PC12 cells (PC12 cells [2]): the strongest activities; protective effect on rotenone injury to PC12 cells (PC12 cells [3]): the strongest activities |
| COc1cc(/C=C/c2ccccc2Cl)cc(O)c1CC=C(C)C [Compound 10b] | > 0.23 | – | – | – | – | – | IC50 (Coxsackie virus B6; read-out: COX-B6 IC50): 6.38 µg/mL (≈ 19.4 µM); EC50 (HCV): 0.59 µg/mL (≈ 1.79 µM); anti-HCV viral activity (HCV): stronger anti-HIV, HCV viral activities; IC50 (HIV-1 III B virus): 0.3 µg/mL (≈ 0.912 µM); anti-HIV viral activity (HIV-1 III B virus): stronger anti-HIV, HCV viral activities; viability at 10 µM (PC12 cells [2]): 74.8 ± 5.2%; viability at 10 µM (PC12 cells [3]): 74.6 ± 6.3% |
| CC/C=C/c1cc(OC)c(CC=C(C)C)c(O)c1C(=O)OC [Compound 8h, methyl 2-hydroxy-3-isopentenyl-4-methoxy-6-[(E)-buten-1-yl]-benzoate] | 1.92 (≈ 6.31 µM) | > 2.06 | 1.42 (≈ 4.67 µM) | 2.66 (≈ 8.74 µM) | 35.4 ± 10.6 | 72.4 ± 4.3 | – |
| COc1cc(CCc2ccccc2)cc(O)c1CC=C(C)C [Compound 10v, 2-isopentenyl-3-methoxy-5-phenethyl phenol] | > 0.69 | > 6.19 | 1.73 (≈ 5.84 µM) | 1.36 (≈ 4.59 µM) | 85.2 ± 4.1 | 87.1 ± 2.5 | protective effect on serum-deprived injury to PC12 cells (PC12 cells [2]): the strongest activities; protective effect on rotenone injury to PC12 cells (PC12 cells [3]): the strongest activities |
| Oc1cc(O)cc(/C=C/c2ccc(O)c(O)c2)c1 [Compound 21e, 1,3-dihydroxy-5-[(E)-3,4-dihydroxystyryl]benzene] | 2.38 (≈ 9.74 µM) | 4.86 (≈ 19.9 µM) | 2.06 (≈ 8.43 µM) | 6.33 (≈ 25.9 µM) | 85.6 ± 4.2 | 87.4 ± 2.5 | – |
| COc1cc(/C=C/c2ccc(F)cc2)c(C(=O)O)c(O)c1CC=C(C)C [Compound 1a, 2-hydroxy-3-isopentenyl-4-methoxy-6-[(E)-4-fluorostyryl]benzoic acid] | > 0.69 | > 0.69 | 1.04 (≈ 2.92 µM) | 1.01 (≈ 2.83 µM) | 16.7 ± 0.6 | 62.4 ± 3.8 | anti-HCV viral activity (HCV): stronger anti-HIV, HCV viral activities; anti-HIV viral activity (HIV-1 III B virus): stronger anti-HIV, HCV viral activities |
| COc1cc(/C=C/c2ccccc2)c(C(=O)Nc2ccc(Cl)cc2)c(O)c1CC=C(C)C [Compound 9h, N-p-chlorophenyl2-hydroxy-3-isopentenyl-4-methoxy-6-[(E)-styryl]benzamide] | 0.47 (≈ 1.05 µM) | 2.98 (≈ 6.65 µM) | 1.33 (≈ 2.97 µM) | 3.38 (≈ 7.55 µM) | 84.5 ± 5.1 | 79.8 ± 2.1 | anti-influenza virus activities compared with the lead compound cajanine [1]: significantly stronger than the lead compound cajanine |
| COc1cc(CCc2ccccc2)c(C(=O)O)c(O)c1CC=C(C)C [Compound 37, 2-hydroxy-3-isopentenyl-4-methoxy-6-phenethyl benzoic acid] | > 22.2 | > 2.05 | 12.2 (≈ 35.8 µM) | 2.09 (≈ 6.14 µM) | 29 ± 11.2 | 60.4 ± 7.8 | – |
| COc1cc(/C=C/c2ccccc2)c(C(=O)OCC(O)CO)c(O)c1CC=C(C)C (stereo not shown) [Compound 9e, 2,3-dihydroxypropyl2-hydroxy-3-isopentenyl-4-methoxy-6-[(E)-styryl]benzoate] | 0.1 (≈ 0.242 µM) | 0.21 (≈ 0.509 µM) | 0.66 (≈ 1.6 µM) | 0.73 (≈ 1.77 µM) | 91.3 ± 2.4 | 90.8 ± 4.3 | anti-influenza virus activities compared with the lead compound cajanine [1]: significantly stronger than the lead compound cajanine; anti-HCV viral activity (HCV): stronger anti-HIV, HCV viral activities; anti-HIV viral activity (HIV-1 III B virus): stronger anti-HIV, HCV viral activities; protective effect on serum-deprived injury to PC12 cells (PC12 cells [2]): the strongest activities; protective effect on rotenone injury to PC12 cells (PC12 cells [3]): the strongest activities |
| COc1cccc(OC)c1/C=C/c1cc(O)c(CC=C(C)C)c(OC)c1 [Compound 10d, 2-isopentenyl-3-methoxy-5-[(E)-2′,6′-dimethoxy-styryl]phenol] | > 6.17 | > 2.05 | 2.37 (≈ 6.69 µM) | 1.05 (≈ 2.96 µM) | 79.3 ± 5.4 | 78.9 ± 6.1 | protective effect on serum-deprived injury to PC12 cells (PC12 cells [2]): the strongest activities; protective effect on rotenone injury to PC12 cells (PC12 cells [3]): the strongest activities |
| COC(=O)c1c(/C=C/c2ccccc2)cc(OC)c(CC=C(C)C)c1O [Compound 8, methyl 2-hydroxy-3-isopentenyl-4-methoxy-6-[(E)-styryl]-benzoate] | 0.69 (≈ 1.96 µM) | 3.56 (≈ 10.1 µM) | 0.79 (≈ 2.24 µM) | 1.06 (≈ 3.01 µM) | 76.6 ± 5.8 | 78.9 ± 5.7 | anti-HCV viral activity (HCV): stronger anti-HIV, HCV viral activities; anti-HIV viral activity (HIV-1 III B virus): stronger anti-HIV, HCV viral activities |
| COc1cc(/C=C/CCc2ccccc2)cc(O)c1CC=C(C)C [Compound 10l, 2-isopentenyl-3-methoxy-5-[(E)-4′-phenylbuten-1′-yl]phenol] | 0.65 (≈ 2.02 µM) | > 18.2 | 0.95 (≈ 2.95 µM) | 2.2 (≈ 6.82 µM) | 81.3 ± 2.9 | 84.6 ± 6.2 | anti-influenza virus activities compared with the lead compound cajanine [1]: significantly stronger than the lead compound cajanine; anti-HCV viral activity (HCV): stronger anti-HIV, HCV viral activities; anti-HIV viral activity (HIV-1 III B virus): stronger anti-HIV, HCV viral activities; protective effect on serum-deprived injury to PC12 cells (PC12 cells [2]): the strongest activities; protective effect on rotenone injury to PC12 cells (PC12 cells [3]): the strongest activities |
| COc1cc(/C=C/c2ccc(O)cc2)c(C(=O)O)c(O)c1CC=C(C)C [Compound 1q] | 2.35 (≈ 6.63 µM) | 0.86 (≈ 2.43 µM) | 2.3 (≈ 6.49 µM) | 1.86 (≈ 5.25 µM) | 79.6 ± 2.8 | 78.9 ± 5.3 | anti-influenza virus activities compared with the lead compound cajanine [1]: significantly stronger than the lead compound cajanine |
| COc1cc(/C=C/c2ccccc2)c(C(=O)NC2CCNCC2)c(O)c1CC=C(C)C [Compound 9f] | 0.31 (≈ 0.737 µM) | 0.24 (≈ 0.571 µM) | 6.09 (≈ 14.5 µM) | 0.14 (≈ 0.333 µM) | 58.9 ± 2.6 | 68.5 ± 4.9 | – |
| COc1cc(C=C2CCC(C)CC2)c(C(=O)O)c(O)c1CC=C(C)C (stereo not shown) [Compound 1n, 2-hydroxy-3-isopentenyl-4-methoxy-6-(4′-methyl-cyclohexylenemethyl)benzoic acid] | – | – | – | – | – | – | Influenza A virus (hanfang359/95) IC50 [1]: >6.17 µg/mL; COX-B6 IC50 (Coxsackie virus B6): >0.69 µg/mL; HCV EC50 (HCV; [5]): 2.61 µg/mL; HIV IC50 (HIV-1 III B virus; [6]): 0.99 µg/mL; serum-deprived (surviving PC12 cells, MTT 570 nm) (PC12 cells [2]; [7]): 17.3 ± 2.4; rotenone (surviving PC12 cells, MTT 570 nm) (PC12 cells [3]; [8]): 62.9 ± 2.7 |
| COc1ccnc(/C=C/c2cc(OC)c(CC=C(C)C)c(O)c2C(=O)O)c1 [Compound 1v, 2-hydroxy-3-isopentenyl-4-methoxy-6-[(E)-2-(4-methoxypyrid-2-yl)ethenyl]benzoic acid] | 2.31 (≈ 6.25 µM) | 1.25 (≈ 3.38 µM) | – | 1.48 (≈ 4.01 µM) | 79.9 ± 1.6 | 87.2 ± 2.6 | EC50 (HCV): 1.25 µg/mL (≈ 3.38 µM) |
| COc1cc(/C=C/c2ccccc2)c(C(=O)n2ccnc2)c(O)c1CC=C(C)C [Compound 22, (E)-(2-hydroxy-3-isopentenyl-4-methoxy-6-styrylphenyl)(1H-imidazol-1-yl)ketone] | 1.25 (≈ 3.22 µM) | 2.37 (≈ 6.1 µM) | 0.68 (≈ 1.75 µM) | 0.35 (≈ 0.901 µM) | 87.8 ± 2.9 | 85.6 ± 1.6 | – |
| COC(=O)c1c(/C=C/c2cccc(OC)n2)cc(OC)c(CC=C(C)C)c1O [Compound 8y, methyl 2-hydroxy-3-isopentenyl-4-methoxy-6-[(E)-2-(6-methoxy-pyrid-2-yl)ethenyl]benzoate] | 2.14 (≈ 5.58 µM) | 7.12 (≈ 18.6 µM) | 4.33 (≈ 11.3 µM) | 6.8 (≈ 17.7 µM) | 49.8 ± 2.6 | 48.9 ± 6.5 | – |
